Patent US8912184B1, “Therapeutic and diagnostic methods” (Alzheimer's Institute of America, Inc., priority 2010, dated 2014)
Read-outs that look alike come from different tables or passages of the source.

Tested on: cancer cell lines
Assay: Standard Cytotoxicity Assay for other cancer cell types (TC50, CellTiter-Glo)
Format: cell-based
Experimental: Approximately 24 hours later, test compound was added from serial dilutions prepared in DMSO from DMSO stock solutions.

Structure (SMILES): O=C(NCc1cccnc1)Nc1ccc(COc2ccccc2-c2ccccc2)cc1 [Exemplary Compound A, 1-{4-[(biphenyl-2-yloxy)methyl]phenyl}-3-(pyridin-3-ylmethyl)urea]
- CC50 (72 h, DB (lymphoma), 3 DAY, read-out: TC50 (the source's name)): 3.5 nM
- CC50 (72 h, DEL cells (lymphoma), 3 day, read-out: Cmpd A 3 day TC50): 41 nM
- CC50 (72 h, MC/CAR cells (myeloma), 3 day, read-out: Cmpd A 3 day TC50): 8.2 nM
- CC50 (72 h, NAMALWA cells (lymphoma), 3 day, read-out: Cmpd A 3 day TC50): 0.85 nM
- CC50 (Calu-6 cells (lung (NSCLC)), 3 day, read-out: Cmpd A 3 day TC50): 12 nM
- CC50 (DU145 cells (prostate), 3 day, read-out: Cmpd A 3 day TC50): 3.8 nM
- CC50 (Daudi cells (lymphoma), 3 day, read-out: Cmpd A 3 day TC50): < 0.8 nM
- CC50 (Homo sapiens, 22Rv1, 72 h, 22RV1 cells (prostate), 3 day, read-out: Cmpd A 3 day TC50): 8.4 nM
- CC50 (Homo sapiens, A 172, 72 h, A172 (glioma), 3 DAY, read-out: TC50 (the source's name)): 1.1 nM
- CC50 (Homo sapiens, A498, 72 h, A498 cells (kidney), 3 day, read-out: Cmpd A 3 day TC50): 43 nM
- CC50 (Homo sapiens, A2058, 72 h, A2058 cells (melanoma (lymph node metastasis)), 3 day, read-out: Cmpd A 3 day TC50): 3.4 nM
- CC50 (Homo sapiens, ACHN, 72 h, ACHN cells (kidney), 3 day, read-out: Cmpd A 3 day TC50): 3.7 nM
- CC50 (Homo sapiens, BT-20, 72 h, BT-20 cells (breast), 3 day, read-out: Cmpd A 3 day TC50): 13 nM
- CC50 (Homo sapiens, BT-474, 168 h, BT-474 cells (breast), 7 day, read-out: Cmpd A 7 day TC50): 1.1 nM
- CC50 (Homo sapiens, BXPC-3, 72 h, BxPC-3 cells (pancreas), 3 day, read-out: Cmpd A 3 day TC50): 11 nM
- CC50 (Homo sapiens, CAMA-1, 72 h, CAMA-1 cells (breast), 3 day, read-out: Cmpd A 3 day TC50): 4.6 nM
- CC50 (Homo sapiens, CCRF-CEM, 72 h, CCRF-CEM cells (lymphocytic leukemia), 3 day, read-out: Cmpd A 3 day TC50): 2 nM
- CC50 (Homo sapiens, COLO 205, 72 h, COLO205 (colon), 3 DAY, read-out: TC50 (the source's name)): 0.5 nM
- CC50 (Homo sapiens, COLO 205, 168 h, COLO205 (colon), 7 DAY, read-out: TC50 (the source's name)): 0.3 nM
- CC50 (Homo sapiens, COLO 205, 168 h, COLO205 cells (colon), 7 day, read-out: Cmpd A 7 day TC50): 0.3 nM
- CC50 (Homo sapiens, Calu-6, 72 h, Calu-6 cells (lung (NSCLC)), 3 day, read-out: Cmpd A 3 day TC50): 11 nM
- CC50 (Homo sapiens, DBTRG-05MG, 72 h, DBTRG-05MG cells (brain; glioblastoma), 3 day, read-out: Cmpd A 3 day TC50): 19 nM
- CC50 (Homo sapiens, DLD-1, 72 h, DLD-1 cells (colon), 3 day, read-out: Cmpd A 3 day TC50): 1.7 nM
- CC50 (Homo sapiens, DMS-114, 72 h, DMS-114 (SCLC), 3 DAY, read-out: TC50 (the source's name)): 0.16 nM
- CC50 (Homo sapiens, DU-145, 72 h, DU145 (prostate), 3 DAY, read-out: TC50 (the source's name)): 3.9 nM
- CC50 (Homo sapiens, DU-145, 72 h, DU145 cells (prostate), 3 day, read-out: Cmpd A 3 day TC50): 3.9 nM
- CC50 (Homo sapiens, DU-145, 168 h, DU145 (prostate), 7 DAY, read-out: TC50 (the source's name)): 2.7 nM
- CC50 (Homo sapiens, DU-145, 168 h, DU145 cells (prostate), 7 day, read-out: Cmpd A 7 day TC50): 3 nM
- CC50 (Homo sapiens, DU-4475, 72 h, DU4475 (breast), 3 DAY, read-out: TC50 (the source's name)): 0.1 nM
- CC50 (Homo sapiens, DU-4475, 72 h, DU4475 cells (breast), 3 day, read-out: Cmpd A 3 day TC50): 0.1 nM
- CC50 (Homo sapiens, DU-4475, 168 h, DU4475 (breast), 7 DAY, read-out: TC50 (the source's name)): 0.1 nM
- CC50 (Homo sapiens, DU-4475, 168 h, DU4475 cells (breast), 7 day, read-out: Cmpd A 7 day TC50): 0.1 nM
- CC50 (Homo sapiens, Daudi, 72 h, Daudi cells (lymphoma), 3 day, read-out: Cmpd A 3 day TC50): 1.4 nM
- CC50 (Homo sapiens, EKVX, 72 h, EKVX cells (lung (NSCLC)), 3 day, read-out: Cmpd A 3 day TC50): 4 nM
- CC50 (Homo sapiens, EKVX, 168 h, EKVX cells (lung (NSCLC)), 7 day, read-out: Cmpd A 7 day TC50): 1 nM
- CC50 (Homo sapiens, H9, 72 h, H9 cells (lymphoma), 3 day, read-out: Cmpd A 3 day TC50): 3.2 nM
- CC50 (Homo sapiens, HCC827, 72 h, HCC827 (NSCLC), 3 DAY, read-out: TC50 (the source's name)): 8 nM
- CC50 (Homo sapiens, HCC827, 72 h, HCC827 cells (lung (NSCLC)), 3 day, read-out: Cmpd A 3 day TC50): 8 nM
- CC50 (Homo sapiens, HCC827, 168 h, HCC827 (NSCLC), 7 DAY, read-out: TC50 (the source's name)): 1.5 nM
- CC50 (Homo sapiens, HCC827, 168 h, HCC827 cells (lung (NSCLC)), 7 day, read-out: Cmpd A 7 day TC50): 1.5 nM
- CC50 (Homo sapiens, HCC1937, 72 h, HCC1937 cells (breast), 3 day, read-out: Cmpd A 3 day TC50): 61 nM
- CC50 (Homo sapiens, HCC1937, 168 h, HCC1937 cells (breast), 7 day, read-out: Cmpd A 7 day TC50): 1.5 nM
- CC50 (Homo sapiens, HCT-15, 72 h, HCT-15 (colon), 3 DAY, read-out: TC50 (the source's name)): 0.7 nM
- CC50 (Homo sapiens, HCT-15, 168 h, HCT-15 (colon), 7 DAY, read-out: TC50 (the source's name)): 1 nM
- CC50 (Homo sapiens, HCT-15, 168 h, HCT-15 cells (colon), 7 day, read-out: Cmpd A 7 day TC50): 1 nM
- CC50 (Homo sapiens, HCT-116, 72 h, HCT116 (colon), 3 DAY, read-out: TC50 (the source's name)): 0.6 nM
- CC50 (Homo sapiens, HCT-116, 72 h, HCT-116 cells (colon), 3 day, read-out: Cmpd A 3 day TC50): 0.2 to 4.4 nM
- CC50 (Homo sapiens, HCT-116, 168 h, HCT116 (colon), 7 DAY, read-out: TC50 (the source's name)): 0.4 nM
- CC50 (Homo sapiens, HCT-116, 168 h, HCT-116 cells (colon), 7 day, read-out: Cmpd A 7 day TC50): 0.4 nM
- CC50 (Homo sapiens, HL-60, 72 h, HL-60 cells (myelogenous leukemia), 3 day, read-out: Cmpd A 3 day TC50): 5.3 nM
- CC50 (Homo sapiens, HOP-62, 72 h, HOP62 cells (lung (NSCLC)), 3 day, read-out: Cmpd A 3 day TC50): 4 nM
- CC50 (Homo sapiens, HOP-92, 72 h, HOP92 (NSCLC), 3 DAY, read-out: TC50 (the source's name)): 17 nM
- CC50 (Homo sapiens, HOP-92, 72 h, HOP92 cells (lung (NSCLC)), 3 day, read-out: Cmpd A 3 day TC50): 17 nM
- CC50 (Homo sapiens, HOP-92, 168 h, HOP92 (NSCLC), 7 DAY, read-out: TC50 (the source's name)): 4.3 nM
- CC50 (Homo sapiens, HOP-92, 168 h, HOP92 cells (lung (NSCLC)), 7 day, read-out: Cmpd A 7 day TC50): 4.3 nM
- CC50 (Homo sapiens, HOS, 72 h, HOS cells (osteosarcoma), 3 day, read-out: Cmpd A 3 day TC50): < 0.8 nM
- CC50 (Homo sapiens, HT-29, 72 h, HT29 (colon), 3 DAY, read-out: TC50 (the source's name)): 1.4 nM
- CC50 (Homo sapiens, HT-29, 72 h, HT29 cells (colon), 3 day, read-out: Cmpd A 3 day TC50): 1.4 nM
- CC50 (Homo sapiens, HT-29, 168 h, HT29 (colon), 7 DAY, read-out: TC50 (the source's name)): 1.1 nM
- CC50 (Homo sapiens, HT-29, 168 h, HT29 cells (colon), 7 day, read-out: Cmpd A 7 day TC50): 1.1 nM
- CC50 (Homo sapiens, HT-1080, 72 h, HT1080 (sarcoma), 3 DAY, read-out: TC50 (the source's name)): 1 nM
- CC50 (Homo sapiens, HT-1080, 72 h, HT1080 cells (fibrosarcoma), 3 day, read-out: Cmpd A 3 day TC50): 1 nM
- CC50 (Homo sapiens, HT-1080, 168 h, HT1080 (sarcoma), 7 DAY, read-out: TC50 (the source's name)): 0.6 nM
- CC50 (Homo sapiens, HT-1080, 168 h, HT1080 cells (fibrosarcoma), 7 day, read-out: Cmpd A 7 day TC50): 0.6 nM
- CC50 (Homo sapiens, IGROV-1, 72 h, IGR-OV1 cells (ovary), 3 day, read-out: Cmpd A 3 day TC50): 2 nM
- CC50 (Homo sapiens, JJN-3, 72 h, JJN3 cells (myeloma (plasma cell leukemia)), 3 day, read-out: Cmpd A 3 day TC50): 0.9 nM
- CC50 (Homo sapiens, K562, 72 h, K562 cells (myelogenous leukemia), 3 day, read-out: Cmpd A 3 day TC50): 5.7 nM
- CC50 (Homo sapiens, KARPAS-299, 72 h, KARPAS-299 cells (lymphocytic leukemia), 3 day, read-out: Cmpd A 3 day TC50): 20 nM
- CC50 (Homo sapiens, KINGS-1, 72 h, KINGS-1 cells (brain, anaplastic astrocytoma (glioma)), 3 day, read-out: Cmpd A 3 day TC50): 2 nM
- CC50 (Homo sapiens, KM12, 72 h, KM12 (colon), 3 DAY, read-out: TC50 (the source's name)): 0.9 nM
- CC50 (Homo sapiens, KM12, 72 h, KM12 cells (colon), 3 day, read-out: Cmpd A 3 day TC50): 0.9 nM
- CC50 (Homo sapiens, KM12, 168 h, KM12 (colon), 7 DAY, read-out: TC50 (the source's name)): 0.4 nM
- CC50 (Homo sapiens, KM12, 168 h, KM12 cells (colon), 7 day, read-out: Cmpd A 7 day TC50): 0.4 nM
- CC50 (Homo sapiens, LOX IMVI, 72 h, LOX-IMVI cells (melanoma), 3 day, read-out: Cmpd A 3 day TC50): 15 nM
- CC50 (Homo sapiens, MCF7, 72 h, MCF7 cells (breast), 3 day, read-out: Cmpd A 3 day TC50): 2.2 nM
- CC50 (Homo sapiens, MDA-MB-231, 72 h, MDA-MB-231 (breast), 3 DAY, read-out: TC50 (the source's name)): 10 nM
- CC50 (Homo sapiens, MDA-MB-231, 168 h, MDA-MB-231 (breast), 7 DAY, read-out: TC50 (the source's name)): 7.5 nM
- CC50 (Homo sapiens, MDA-MB-231, 168 h, MDA-MB-231 cells (breast), 7 day, read-out: Cmpd A 7 day TC50): 8 nM
- CC50 (Homo sapiens, MDA-MB-436, 72 h, MDA-MB-436 cells (breast), 3 day, read-out: Cmpd A 3 day TC50): 17 nM
- CC50 (Homo sapiens, MIA PaCa-2, 72 h, MIA PaCa-2 (pancreatic), 3 DAY, read-out: TC50 (the source's name)): 1.8 nM
- CC50 (Homo sapiens, MIA PaCa-2, 72 h, MiaPaCa2 cells (pancreas), 3 day, read-out: Cmpd A 3 day TC50): 1.8 nM
